Drawing on patent US10233186B2, “Inhibitors of activin receptor-like kinase” (BLUEPRINT MEDICINES CORPORATION, priority 2016, dated 2019), this text covers IC50 for four compounds.

The target in one test is T1, human ALK2 R206H (Homo sapiens, UniProt Q04771, R206H).
T1 construct: expressed in transfected cells; host or cells: HEK293 (ATCC CRL1573), lentivirus transduction, blasticidin selection
T1 sequence (Q04771 21-509 R206H): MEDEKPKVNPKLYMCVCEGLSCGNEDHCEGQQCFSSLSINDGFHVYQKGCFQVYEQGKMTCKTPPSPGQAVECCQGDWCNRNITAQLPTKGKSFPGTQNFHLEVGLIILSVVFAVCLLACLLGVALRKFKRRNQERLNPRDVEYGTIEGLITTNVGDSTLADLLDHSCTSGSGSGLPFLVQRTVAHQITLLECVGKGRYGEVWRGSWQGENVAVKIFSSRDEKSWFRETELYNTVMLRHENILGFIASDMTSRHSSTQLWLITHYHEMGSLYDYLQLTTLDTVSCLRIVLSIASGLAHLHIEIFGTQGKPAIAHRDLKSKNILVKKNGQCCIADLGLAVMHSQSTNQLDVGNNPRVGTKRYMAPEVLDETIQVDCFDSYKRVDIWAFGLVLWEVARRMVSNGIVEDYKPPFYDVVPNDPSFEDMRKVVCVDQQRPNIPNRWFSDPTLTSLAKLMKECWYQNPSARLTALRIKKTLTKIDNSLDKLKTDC
The test is described as follows: Cell-based ALK2-R206H cell activity assay (Smad1-Ser463/Ser465 phosphorylation by AlphaLISA in HEK293-ALK2-R206H cells). Particulars: read-out: Cell Line (Cell Assay IC50). In short, it runs like this:
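Stable HEK293 cells expressing C-terminally FLAG-tagged human ALK2 R206H (lentiviral, blasticidin-selected) were treated with compounds in 10-point, 3-fold dilutions from 10 μM or 1 μM top, in duplicate. Smad1 Ser463/Ser465 phosphorylation was read by AlphaLISA.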

The target in test [1] is T2, ALK2 R206H (GST-tagged mutant ALK2) (Homo sapiens, UniProt Q04771, R206H).
T2 construct: purchased Carna Bioscience or ThermoFisher 09-148 or PV6232
T2 sequence (Q04771 21-509 R206H): T1 sequence (Q04771 21-509 R206H)
The test can be described thus: ALK binding assay (LANTHASCREEN TR-FRET competitive binding, displacement of Kinase Tracer 178). Particulars: ALK2 R206H, LANTHASCREEN TR-FRET competitive binding; read-out: Binding Assay (IC50).

The structures appear in SMILES notation. Some results are limits rather than exact numbers.

On to `COC1(c2ccc(-c3cc4c(N5CCN(C(=O)OC6COC6)CC5)ccnn4c3)cc2)CCN([C@@H](C)COC(F)F)CC1` [Compound 896], for which the figures for the IC50 (on human ALK2 R206H; in test [1]) were < 0.1 µM and < 0.01 µM, respectively.
For `COC1(c2ccc(-c3cc4c(N5CCN(C(=O)OC6COC6)CC5)ccnn4c3)cc2)CCN([C@H](C)COC(F)F)CC1` [Compound 897], in that order: < 0.1 µM and < 0.01 µM.
Turning to `COC1(c2ccc(-c3cc4c(N5CCN(C(=O)OC6COC6)CC5)ccnn4c3)nc2)CCN([C@H](C)COC(F)F)CC1` [Compound 898], the IC50 on human ALK2 R206H was < 0.1 µM; in test [1], < 0.01 µM.
For `COC1(c2ccc(-c3cc4c(N5CCN(C(=O)OC6COC6)CC5)ccnn4c3)nc2)CCN([C@@H](C)COC(F)F)CC1` [Compound 899], in that order: < 0.1 µM and < 0.01 µM.
